Experimental data published in patent US20250270256A1, “NOVEL ANTIMICROBIAL PEPTIDE WITH EXCELLENT MICROBIAL CYTOPLASM ELUTION EFFECT” (CELLICON LAB INC., priority 2021, published 2025).
Entries after “also recorded” stand apart in the source; their conditions may differ. Read-outs that look alike come from different tables or passages of the source. Where no end group is shown, it is not given here.

Legend:
Escherichia coli [1] = type: cell-based; details: for antimicrobial activity against Escherichia coli (in words): comparison between peptides, FIGS. 1A-4A
Protocol: Specifically, in order to evaluate the antimicrobial activity, the antimicrobial activity against Escherichia coli was measured, and Escherichia coli was treated with antimicrobial peptides, and cell viability was measured and compared.
In order to test the antimicrobial efficacy of antimicrobial peptides, Escherichia coli was cultured in LB medium for about 8 hours, and then the cultured bacteria were dispensed into a 96-well plate. Antimicrobial peptide samples at various concentrations were added into the respective wells, and incubation was performed at 37° C. for 24 hours.
In order to evaluate the antimicrobial activity against Escherichia coli, MIC (minimum inhibitory concentration) and IC50 were additionally measured in addition to the experiments conducted in Examples 1-1 and 1-2.
Specifically, an antimicrobial efficacy experiment was used as the experimental method, and the MIC and IC50 values for the experimental results were calculated by evaluating the minimum inhibitory concentration and the 50% inhibitory concentration with the absorbance and OD value, respectively.

Candida albicans [2] = type: cell-based
Protocol: (§1) In order to evaluate whether the antimicrobial peptides of the present disclosure have antimicrobial activity against bacteria other than Escherichia coli, antimicrobial effects against Escherichia coli, Staphylococcus aureus, Pseudomonas aeruginosa, and Candida albicans, which were strains announced by the Ministry of Food and Drug Safety, were examined.
(§2) Specifically, Escherichia coli, Staphylococcus aureus, and Pseudomonas aeruginosa were cultured using LB medium, and Candida albicans was cultured using YM medium, and then the cultured bacteria were dispensed into a 96-well plate. Antimicrobial peptide samples at various concentrations were added into the respective wells, and incubation was performed at 37° C. for 24 hours.

Pseudomonas aeruginosa [3] = type: cell-based
Protocol: as §1, §2

Staphylococcus aureus [4] = type: cell-based
Protocol: as §1, §2

Escherichia coli [5] = type: cell-based
Protocol: as §1, §2

[6] = test system: Human keratinocytes (HaCaT); details: 24 hours, comparison between peptides, FIGS. 1B-4B
Protocol: Therefore, cytotoxicity to human keratinocytes was also evaluated by treating human keratinocytes with antimicrobial peptides and measuring cell viability.
Human keratinocytes (HaCaT) were purchased from ATCC (American Type Culture Collection, USA) and cultured in Dulbecco's modified Eagle's medium (DMEM, Gibco, USA) containing 10% fetal bovine serum (FBS, Gibco, USA) and 1% antibiotic-antimycotic (Gibco, USA) at 37° C. in a 5% CO2 incubator.
MTT assay was performed to determine the viability of HaCaT cells against antimicrobial peptides. HaCaT cells were cultured in a 96-well plate at 2×10^5 cells/mL for 24 hours, then treated with samples at various concentrations, and cultured again for 24 hours. The culture medium was removed, and the cells were treated with MTT solution (0.5 mg/mL in PBS). After 4 hours, the MTT solution was removed, DMSO was added to each well, and formazan was dissolved at 37° C. for 30 minutes. Absorbance was measured at 570 nm using a microplate reader (Molecular Devices Spectra MAX, Sunnyvale, CA, USA).

Escherichia coli [7] = test: SEM analysis of Escherichia coli treated with peptide; type: cell-based; details: Escherichia coli treated for 30 minutes
Protocol: In order to closely examine the effect of the antimicrobial peptide of the present disclosure on microorganisms, Escherichia coli was treated with the peptide of SEQ ID NO: 6 for 30 minutes, and then the antimicrobial effect was analyzed using a scanning electron microscope (SEM).
Specifically, for SEM analysis, Escherichia coli was cultured using LB medium, then a certain amount of cultured Escherichia coli was taken and treated with the peptide of SEQ ID NO: 6 for 30 minutes, washed with PBS 2 times, and then fixed with a primary fixative of 2% paraformaldehyde in PBS for 2 hours. After fixation, washing with PBS was performed 2 times, dehydration with 30%, 50%, 70%, 80%, 95%, and 100% ethanol was performed for 10 minutes in each step (the last treatment with 100% ethanol was repeated 3 times), and the pellets were lyophilized. After platinum coating using a coater, analysis by SEM was conducted.

Staphylococcus aureus [8] = test: Disk diffusion test (Kirby-Bauer): Staphylococcus aureus; type: cell-based; details: 10 μL sample, 37° C. for 16 hours
Protocol: (§3) In order to perform a disk diffusion test for the four kinds of bacteria, the following experiment was conducted.
(§4) After Escherichia coli, Staphylococcus aureus, Pseudomonas aeruginosa, and Candida albicans were cultured in the respective media, a certain amount of the cultured bacteria was spread on unhardened solid media, and then the media were hardened. On the surface of the hardened solid medium, 10 μL of antimicrobial peptide sample was placed, a dry 3M paper disk was put thereon, then incubation was performed at 37° C. for 16 hours, and the size of the zone of inhibition was observed.

Escherichia coli [9] = test: Disk diffusion test (Kirby-Bauer): Escherichia coli; type: cell-based; details: 10 μL sample, 37° C. for 16 hours
Protocol: as §3, §4

Pseudomonas aeruginosa [10] = test: Disk diffusion test (Kirby-Bauer): Pseudomonas aeruginosa; type: cell-based; details: 10 μL sample, 37° C. for 16 hours
Protocol: as §3, §4

Candida albicans [11] = test: Disk diffusion test (Kirby-Bauer): Candida albicans; type: cell-based; details: 10 μL sample, 37° C. for 16 hours
Protocol: as §3, §4

[12] = Candida albicans, YM medium, 24 hours at 37° C., read-out: IC50
[13] = Pseudomonas aeruginosa, LB medium, 24 hours at 37° C., read-out: IC50
[14] = Staphylococcus aureus, LB medium, 24 hours at 37° C., read-out: IC50
[15] = Escherichia coli, LB medium, 24 hours at 37° C., read-out: IC50
[16] = Escherichia coli, 24 hours at 37° C., absorbance 600 nm
[17] = Escherichia coli, 24 hours at 37° C., absorbance 600 nm, read-out: IC50

| Compound | antimicrobial activity against Escherichia coli (in words) (Escherichia coli [1]) | IC50 (Candida albicans [2]; [12]) | IC50 (Pseudomonas aeruginosa [3]; [13]) | IC50 (Staphylococcus aureus [4]; [14]) | IC50 (Escherichia coli [5]; [15]) | toxicity level to human keratinocytes (in words) [6] | IC50 (Escherichia coli [1]; 24 h) | MIC (Escherichia coli [1]; 24 h) | IC50 (Candida albicans [2]; 24 h) | IC50 (Pseudomonas aeruginosa [3]; 24 h) | IC50 (Staphylococcus aureus [4]; 24 h) | IC50 (Escherichia coli [5]; 24 h) | MIC (Escherichia coli [1]; [16]) | IC50 (Escherichia coli [1]; [17]) | effect on cell membrane observed by SEM (Escherichia coli [7]) | zone of inhibition (Staphylococcus aureus [8]) | zone of inhibition (Escherichia coli [9]) | zone of inhibition (Pseudomonas aeruginosa [10]) | zone of inhibition (Candida albicans [11]) |
| --- | --- | --- | --- | --- | --- | --- | --- | --- | --- | --- | --- | --- | --- | --- | --- | --- | --- | --- | --- |
| CC[C@H](C)[C@H](NC(=O)[C@H](CCCCN)NC(=O)[C@H](CCCCN)NC(=O)[C@H](Cc1ccccc1)NC(=O)[C@H](CC(C)C)NC(=O)[C@H](CCCCN)NC(=O)[C@@H](N)CCCCN)C(=O)N[C@@H](CC(C)C)C(=O)N[C@@H](CCCCN)C(=O)N[C@@H](Cc1ccc(O)cc1)C(=O)N[C@@H](CC(C)C)C(=O)N[C@@H](CCCCN)C(=O)O [SEQ ID NO: 1, H2N-[Lys-Lys-Leu-Phe-Lys-Lys-Ile-Leu-Lys-Tyr-Leu-Lys]-CO2H] | remarkably increased compared to that of the known peptide | 19 µM | 12 µM | 22 µM | 21 µM | maintained at a similar level to that of the known peptide | – | – | – | – | – | – | – | – | – | – | – | – | – |
| H-KRLFKRILRYLK-OH [SEQ ID NO: 7, H2N-[Lys-Arg-Leu-Phe-Lys-Arg-Ile-Leu-Arg-Tyr-Leu-Lys]-CO2H] | – | – | – | – | – | – | 11 µM | 62.5 µM | 10 µM | 8 µM | 13 µM | 11 µM | – | – | – | – | – | – | – |
| KRLFRKILKYLR [SEQ ID NO: 6, H2N-[Lys-Arg-Leu-Phe-Arg-Lys-Ile-Leu-Lys-Tyr-Leu-Arg]-CO2H] | most remarkably excellent | 6 µM | 4 µM | 10 µM | 9 µM | – | – | – | – | – | – | – | 31.25 µM | 9 µM | entire cell membrane of Escherichia coli is destroyed to form large pores and elution of cell contents of the bacteria is observed | transparent zones of inhibition with clear borders | transparent zones of inhibition with clear borders | transparent zones of inhibition with clear borders | transparent zones of inhibition with clear borders |
| RKLFKRILRYLK [SEQ ID NO: 5, H2N-[Arg-Lys-Leu-Phe-Lys-Arg-Ile-Leu-Arg-Tyr-Leu-Lys]-CO2H] | – | 11 µM | 9 µM | 15 µM | 12 µM | – | – | – | – | – | – | – | 62.5 µM | 12 µM | – | – | – | – | – |
| RKLFRKILKYLR [SEQ ID NO: 8, H2N-[Arg-Lys-Leu-Phe-Arg-Lys-Ile-Leu-Lys-Tyr-Leu-Arg]-CO2H] | most remarkably excellent | 8 µM | 5 µM | 10 µM | 10 µM | – | – | – | – | – | – | – | 31.25 µM | 10 µM | – | – | – | – | – |
| RRLFRRILRYLR [SEQ ID NO: 2, H2N-[Arg-Arg-Leu-Phe-Arg-Arg-Ile-Leu-Arg-Tyr-Leu-Arg]-CO2H] | remarkably increased compared to that of the peptide of SEQ ID NO: 1; also recorded: remarkably excellent compared to that of the peptides of SEQ ID NO: 3 and SEQ ID NO: 4 | 13 µM | 10 µM | 17 µM | 14 µM | maintained at a level similar to that of SEQ. ID NO: 1 peptide; also recorded: greatly decreased compared to that of the peptides of SEQ ID NO: 3 and SEQ ID NO: 4 | – | – | – | – | – | – | 62.5 µM | 14 µM | – | – | – | – | – |
